# Target: T1, human M1 receptor (hCHRM1) (Homo sapiens, UniProt P11229)
# T1 construct: expressed in transfected cells
# T1 sequence (P11229 1-460): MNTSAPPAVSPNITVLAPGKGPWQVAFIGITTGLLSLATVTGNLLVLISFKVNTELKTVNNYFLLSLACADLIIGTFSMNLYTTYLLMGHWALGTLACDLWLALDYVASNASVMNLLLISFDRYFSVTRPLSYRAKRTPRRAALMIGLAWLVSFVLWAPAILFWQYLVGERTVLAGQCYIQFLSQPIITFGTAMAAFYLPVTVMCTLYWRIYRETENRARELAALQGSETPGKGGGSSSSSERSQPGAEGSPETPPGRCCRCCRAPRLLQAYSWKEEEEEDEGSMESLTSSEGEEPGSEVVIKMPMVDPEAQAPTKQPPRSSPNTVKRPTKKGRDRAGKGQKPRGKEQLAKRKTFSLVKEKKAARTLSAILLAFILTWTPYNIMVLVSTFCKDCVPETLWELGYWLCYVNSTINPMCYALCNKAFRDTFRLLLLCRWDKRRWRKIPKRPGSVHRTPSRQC
# Test: Measurement of M1 receptor positive allosteric modulator (M1PAM) activity, calcium fluorescence (FLIPRtetra) with acetylcholine at EC20
# Format: cell-based
# Conditions: for activity (%) at 10 μM: 10 μM test compound, 100% = acetylcholine 1 μM, 0% = DMSO, acetylcholine at EC20; for EC50: inflection point of concentration-dependent curve, CHO-K1 cells expressing hCHRM1, acetylcholine at EC20 (final 0.6-0.8 nM), read-out: IP value
# Experimental: The activity of a test compound in the presence of acetylcholine at EC20 concentration (final concentration 0.6-0.8 nM), which affords an action corresponding to about 20% of the maximum activity, was measured as PAM activity. The method is as follows. CHO-K1 cells stably expressing a human M1 receptor (hCHRM1) were plated on a 384-well black clear bottom plate (BD Falcon) at 5,000 cells/well, and cultured in an incubator at 37° C., 5% CO2 for 1 day. The medium in the cell plate was removed, and assay buffer A (Recording medium (DOJINDO LABORATORIES), 0.1% BSA (Wako Pure Chemical Industries, Ltd.), 2.5 μg/mL Fluo-4 AM (DOJINDO LABORATORIES), 0.08% Pluronic F127 (DOJINDO LABORATORIES), 1.25 mM probenecid (DOJINDO LABORATORIES)) containing a calcium indicator was added at 30 μL/well. The cells were left standing in the incubator at 37° C., 5% CO2 for 30 min, and further left standing at room temperature for 30 min. A test compound prepared by diluting with assay buffer B (HBSS (Invitrogen), 20 mM HEPES (Invitrogen), 0.1% BSA) containing 2.4-3.2 nM acetylcholine was added at 10 μL/well, and the fluorescence was measured by FLIPRtetra (Molecular Devices) for 1 min every 1 second. With the definition that the amount of change in the fluorescence on addition of acetylcholine (final concentration 1 μM) is 100% and that on addition of DMSO instead of a test compound is 0%, the activity (%) of the test compound was calculated, and the inflection point in the concentration-dependent curve of the test compound was calculated as IP values.
activity (%) at 10 μM [%],EC50 [µM],SMILES
82,0.0015,"Cc1c(Cc2ccc(C(N)=O)cc2F)cc2c(c1C)CN([C@H]1COCC[C@@H]1O)C2=O (racemic) [Example 113, rac-3-fluoro-4-((2-(trans-4-hydroxytetrahydro-2H-pyran-3-yl)-6,7-dimethyl-3-oxo-2,3-dihydro-1H-isoindol-5-yl)methyl)benzamide]"
103,0.036,"COc1ccc(Cc2cc3c(c(C)c2C)CN([C@H]2COCC[C@@H]2O)C3=O)cc1 (racemic) [Example 165, rac-2-(trans-4-hydroxytetrahydro-2H-pyran-3-yl)-6-(4-methoxybenzyl)-4,5-dimethyl-2,3-dihydro-1H-isoindol-1-one]"
107,0.083,"Cc1cc2c(cc1Cc1ccc(-n3cccn3)cc1)C(=O)N(CC1CCCO1)C2 (centres unmarked) [Example 36, 5-methyl-6-(4-(1H-pyrazol-1-yl)benzyl)-2-(tetrahydrofuran-2-ylmethyl)isoindolin-1-one]"
97,0.031,"Cc1cc2c(cc1Cc1ccc(-c3cn(C)nn3)cc1)C(=O)N(CC1CCCO1)C2 (centres unmarked) [Example 49, 5-methyl-6-(4-(1-methyl-1H-1,2,3-triazol-4-yl)benzyl)-2-(tetrahydrofuran-2-ylmethyl)isoindolin-1-one]"
92,0.037,"Cc1cc2c(cc1Cc1ccc(-c3cn(C)nn3)cc1F)C(=O)N(CC1CCCO1)C2 (centres unmarked) [Example 54, 6-(2-fluoro-4-(1-methyl-1H-1,2,3-triazol-4-yl)benzyl)-5-methyl-2-(tetrahydrofuran-2-ylmethyl)isoindolin-1-one]"
100,0.095,"CCc1cc2c(cc1Cc1ccc(-n3cccn3)cc1)C(=O)N(CC1CCCO1)C2 (centres unmarked) [Example 58, 5-ethyl-6-(4-(1H-pyrazol-1-yl)benzyl)-2-(tetrahydrofuran-2-ylmethyl)isoindolin-1-one]"
94,0.072,"Cn1cc(-c2ccc(Cc3cc4c(cc3Cl)CN(CC3CCCO3)C4=O)cc2)nn1 (centres unmarked) [Example 60, 5-chloro-6-(4-(1-methyl-1H-1,2,3-triazol-4-yl)benzyl)-2-(tetrahydrofuran-2-ylmethyl)isoindolin-1-one]"
97,0.035,"Cn1cc(-c2ccc(Cc3cc4c(cc3C3CC3)CN(CC3CCCO3)C4=O)cc2)nn1 (centres unmarked) [Example 61, 5-cyclopropyl-6-(4-(1-methyl-1H-1,2,3-triazol-4-yl)benzyl)-2-(tetrahydrofuran-2-ylmethyl)isoindolin-1-one]"
103,0.095,"O=C1c2cc(Cc3ccc(-n4cccn4)cc3)c(C3CC3)cc2CN1CC1CCCO1 (centres unmarked) [Example 62, 5-cyclopropyl-6-(4-(1H-pyrazol-1-yl)benzyl)-2-(tetrahydrofuran-2-ylmethyl)isoindolin-1-one]"
95,0.096,"Cc1cc2c(cc1Cc1ccc(-c3cnn(C)c3)cc1)C(=O)N(CC1CCCO1)C2 (centres unmarked) [Example 68, 5-methyl-6-(4-(1-methyl-1H-pyrazol-4-yl)benzyl)-2-(tetrahydrofuran-2-ylmethyl)isoindolin-1-one]"
90,0.014,"Cc1c(Cc2ccc(-n3cccn3)cc2)cc2c(c1C)CN(CC1CCCO1)C2=O (centres unmarked) [Example 80, 4,5-dimethyl-6-(4-(1H-pyrazol-1-yl)benzyl)-2-(tetrahydrofuran-2-ylmethyl)isoindolin-1-one]"

# The next lines start with the compound.
SMILES,activity (%) at 10 μM [%],EC50 [µM]
"Cc1cc2c(cc1Cc1ccc(-n3cccn3)cc1)C(=O)N([C@H]1CCC[C@@H]1O)C2 [Example 4, 2-((1S,2S)-2-hydroxycyclopentyl)-5-methyl-6-(4-(1H-pyrazol-1-yl)benzyl)isoindolin-1-one]",98,0.019
"Cc1cc2c(cc1Cc1ccc(-n3cccn3)cc1)C(=O)N(c1c(F)cccc1C#N)C2 [Example 7, 3-fluoro-2-(5-methyl-1-oxo-6-(4-(1H-pyrazol-1-yl)benzyl)-1,3-dihydro-2H-isoindol-2-yl)benzonitrile]",107,0.18
"Cc1cc2c(cc1Cc1ccc(-n3cccn3)cc1)C(=O)N(C1CCOCC1)C2 [Example 8, 5-methyl-6-(4-(1H-pyrazol-1-yl)benzyl)-2-(tetrahydro-2H-pyran-4-yl)isoindolin-1-one]",90,0.29
"Cc1c(Cc2ccc(-c3ccn(C)n3)cc2)cc2c(c1C)CN([C@H]1CCC[C@@H]1O)C2=O [Example 13, 2-((1S,2S)-2-hydroxycyclopentyl)-4,5-dimethyl-6-(4-(1-methyl-1H-pyrazol-3-yl)benzyl)isoindolin-1-one]",104,0.0079
"Cc1c(Cc2ccc(-c3cn(C)nn3)cc2)cc2c(c1C)CN(C[C@@H]1CCCO1)C2=O [Example 14, 4,5-dimethyl-6-(4-(1-methyl-1H-1,2,3-triazol-4-yl)benzyl)-2-((2S)-tetrahydrofuran-2-ylmethyl)isoindolin-1-one]",94,0.0012
"Cc1c(Cc2ccc(-n3cccn3)cc2)cc2c(c1C)CN(CC(C)(C)O)C2=O [Example 15, 2-(2-hydroxy-2-methylpropyl)-4,5-dimethyl-6-(4-(1H-pyrazol-1-yl)benzyl)isoindolin-1-one]",103,0.011
"Cc1c(Cc2ccc(-n3cccn3)cc2F)cc2c(c1C)CN([C@H]1CCC[C@@H]1O)C2=O [Example 16, 6-(2-fluoro-4-(1H-pyrazol-1-yl)benzyl)-2-((1S,2S)-2-hydroxycyclopentyl)-4,5-dimethylisoindolin-1-one]",94,0.012
"Cc1c(Cc2ccc(Cl)cc2)cc2c(c1C)CN([C@H]1COCC[C@@H]1O)C2=O [Example 17, 1,5-anhydro-2-(6-(4-chlorobenzyl)-4,5-dimethyl-1-oxo-1,3-dihydro-2H-isoindol-2-yl)-2,4-dideoxy-L-threo-pentitol]",90,0.018
"CNC(=O)c1ccc(Cc2cc3c(c(C)c2C)CN([C@H]2COCC[C@@H]2O)C3=O)cc1F [Example 19, 1,5-anhydro-2,4-dideoxy-2-(6-(3-fluoro-4-(methylcarbamoyl)benzyl)-4,5-dimethyl-1-oxo-1,3-dihydro-2H-isoindol-2-yl)-L-threo-pentitol]",101,0.002
"Cc1cc2c(cc1Cc1ccc(-n3cccn3)cc1)C(=O)N([C@H]1COCC[C@@H]1O)C2 [Example 21, 1,5-anhydro-2,4-dideoxy-2-(5-methyl-1-oxo-6-(4-(1H-pyrazol-1-yl)benzyl)-1,3-dihydro-2H-isoindol-2-yl)-L-threo-pentitol]",106,0.0062
"Cc1c(Cc2ccc(OC(F)F)cc2)cc2c(c1C)CN([C@H]1COCC[C@@H]1O)C2=O [Example 22, 1,5-anhydro-2,4-dideoxy-2-(6-(4-(difluoromethoxy)benzyl)-4,5-dimethyl-1-oxo-1,3-dihydro-2H-isoindol-2-yl)-L-threo-pentitol]",110,0.032
"COc1cc(Cc2cc3c(c(C)c2C)CN([C@H]2COCC[C@@H]2O)C3=O)ccc1F [Example 23, 1,5-anhydro-2,4-dideoxy-2-(6-(4-fluoro-3-methoxybenzyl)-4,5-dimethyl-1-oxo-1,3-dihydro-2H-isoindol-2-yl)-L-threo-pentitol]",100,0.046
"COc1ccc(Cc2cc3c(c(Cl)c2C)CN([C@H]2COCC[C@@H]2O)C3=O)cc1 [Example 24, 1,5-anhydro-2-(4-chloro-6-(4-methoxybenzyl)-5-methyl-1-oxo-1,3-dihydro-2H-isoindol-2-yl)-2,4-dideoxy-L-threo-pentitol]",88,0.0043
"Cc1c(Cc2ccc(C#N)c(F)c2)cc2c(c1C)CN([C@H]1COCC[C@@H]1O)C2=O [Example 26, 1,5-anhydro-2-(6-(4-cyano-3-fluorobenzyl)-4,5-dimethyl-1-oxo-1,3-dihydro-2H-isoindol-2-yl)-2,4-dideoxy-L-threo-pentitol]",99,0.0092

# From patent publication US9315458B2, “Nitrogen-containing heterocyclic compound” (Takeda Pharmaceutical Company Limited, priority 2014, dated 2016)
